Measured values reported in patent US20260250325A1, “Antiviral Polypeptide Membrane Fusion Inhibitor, and Preparation Method and Application Thereof” (priority 2025, published 2026).
Where a SMILES comes first, the peptide text is derived from it. The star is where a group is joined. Succinyl(4-O-cholesteryl) = CC(C)CCC[C@@H](C)[C@H]1CC[C@H]2[C@@H]3CC=C4C[C@@H](OC(=O)CCC(=O)*)CC[C@]4(C)[C@H]3CC[C@]12C

Assays:
[1] = Cytotoxicity test in HEp-2 cells (CCK8 cell viability); type: cell-based; conditions: human; HEp-2 cells, CCK8, 1 day; read-out: CC50
How it was run: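 Compound dilutions (final DMSO 0.5%) were applied for 1 day to HEp-2 cells plated at 30,000 per well the day before. CCK8 signal gave survival relative to cell and medium controls, and a four-parameter log(inhibitor)-response fit yielded CC50.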

[2] = molecular target: T1, hPIV-N51 (139-189) (Human parainfluenza 3 virus, UniProt P06828); assay: SPR affinity to hPIV-N51 coupled on CM5 chip; type: binding
T1 construct: hPIV-N51 (139-189)
Protocol: hMPV and hPIV were two viruses having a typical Class I fusion protein-F protein. An F protein precursor F0 was cracked into F1 and F2 subunits. […] When the compound flowed through a chip surface, changes in an SPR signal were monitored in real time, binding and dissociation processes were recorded, and a binding rate constant (ka) and a dissociation rate constant (kd) were further obtained through kinetic analysis, thereby calculating an equilibrium dissociation constant (KD=kd/ka).
A CM5 chip with a catalog number 29149603, an amino coupling reagent kit with a catalog number BR100050, HBS-EP+Buffer (10×), sodium acetate (pH 4.0), and a 10 mM glycine-HCl buffer (pH 2.0) were all purchased from GE Health.
CM5 chip coupling: Channels 2 and 4 of the CM5 chip were activated for 7 min by using a freshly-prepared mixture of 50 mM Hydroxy succinimide (NHS) and 200 mM 1-(3-Dimethylaminopropyl)-3-ethylcarbodiimide (EDC) according to 1:1; and then, hMPV-N46 or hPIV-N51 was diluted and dissolved with sodium acetate with 4.0 pH to a concentration of 30 μM, with a flow rate of 10 μl/min and time of 600 s. An experimental buffer was HBS-EP+buffer (1×). Finally, the chip was blocked with 1 M ethanolamine. The instrument was set to a temperature of 25° C.
Affinity detection: the buffer used in the experiment was HBS-EP+buffer (1×), and a multi-cycle dynamic mode was used. Channels 1 and 3 of the chip served as blank reference channels; polypeptides to be detected sequentially flowed through Channels 2 and 4 at concentrations of 0 μM, 0.04 µM, 0.12 µM, 0.37 μM, 1.11 µM, 3.33 µM, 10 µM, and 30 μM; the flow rate was 30 μl/min, binding was performed for 180 s, and dissociation was performed for 120 s. Finally, the chip was regenerated by injecting 10 mM glycine (pH 2.0). The instrument was set to a temperature of 25° C.

[3] = system: hMPV A2; type: cell-based; conditions: Vero cells, plaque reduction
Protocol: (§1) African green monkey kidney cells (Vero) were sourced from the ATCC, with catalog number CCL-81. The cells were cultured in a DMEM culture solution in which 10% fetal bovine serum, 1% non-essential amino acids, 1% sodium pyruvate, 1% L-glutamine, 100 U/ml penicillin, and 100 μg/ml streptomycin were added.
(§2) A hMPV plaque experiment culture medium consisted of an Opti-MEM culture solution added with 1% non-essential amino acids, 100 U/mL penicillin, and 100 μg/mL streptomycin.
(§3) hMPV virus strains A2 and B1 were constructed by WuXi App Tec.
(§4) This study used a plaque reduction experiment to detect the in-vitro activity of a test sample against the hMPV virus strains A2 and B1.
(§5) The test sample and an experimental system were tested at 8 concentrations in duplicated wells. The Vero cells were digested with trypsin and then diluted to a concentration of 400,000 cells per milliliter by using a cell culture solution containing 2% serum. The diluted cells were added to a 96-well cell test board, with 100 μL per well, corresponding to 40000 cells per well. The cells were cultured overnight in a 37° C. incubator with 5% CO2.
(§6) On the second day, the test sample was diluted in an experimental culture medium at a fold ratio. The sample diluted at a fold ratio and an equal volume of virus (approximately 200 PFU per well) were well mixed and incubated at 33° C. in 5% CO2 for 1 h. Then, the culture solution in the 96-well cell test board was discarded, the sample virus mixed solution (100 μL) was added to the 96-well cell culture plate, and incubated at 37° C. in 5% CO2 for 2 hours. After 2 h, the sample virus mixed solution was discarded, 200 μL of an experiment culture medium containing the test sample with a corresponding concentration was added, and the culture solution contained 0.8% CMC and 5 μg/ml trypsin. A final concentration of DMSO in the culture solution was 0.5%. A system control antibody was directly added to the experiment culture solution containing 0.8% CMC and 5 μg/ml trypsin. A cell control (cells, without compound treatment or viral infection) and a viral control (cell infection virus, without compound treatment) were set. The cells were cultured for 1 day in the 33° C. incubator with 5% CO2.
(§7) The cells were fixed with 4% paraformaldehyde, and then permeabilization was performed with 0.5% Triton X-100. After the plate was washed with DPBS, a hMPV specific antibody (1:2000 dilution) was added and incubated at 37° C. for 1.5 h. Then, a secondary antibody (1:1000 dilution) was added and incubated at 37° C. for 1 hour. The secondary antibody was discarded, a TrueBlue solution was added, dyeing was performed for approximately 10 minutes; and the plate was washed with running water and then air-dried, and the number of spots in each well was counted by using a microplate imaging counter.
(§8) Raw data was used for analyzing the antiviral activity of the test samples. A calculation formula was shown as follows.
(§9) % inhibition rate=100−(sample value-cell control average value)/(virus control average value-cell control average value)×100
(§10) Non-linear fitting analysis was performed on the inhibition rate of the sample by using GraphPad Prism (version 10), so as to calculate an EC50 value for the sample. A fitting formula was log (inhibitor) vs. response-Variable slope (four parameters).

[4] = system: hMPV B1; type: cell-based; conditions: Vero cells, plaque reduction
Protocol: as §1, §2, §3, §4, §5, §6, §7, §8, §9, §10

T1 sequence (P06828 139-189): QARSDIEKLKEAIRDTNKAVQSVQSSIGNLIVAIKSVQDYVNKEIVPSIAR

SMILES | CC50 at 1 day [1] [µM] | Kd [2] [µM] | EC50 [3] [nM] | EC50 [4] [nM]
CC[C@H](C)[C@H](NC(=O)[C@H](CCCCN)NC(=O)[C@H](CCCCN)NC(=O)[C@H](CC(C)C)NC(=O)[C@H](CO)NC(=O)[C@H](CCC(=O)O)NC(=O)[C@H](CCC(=O)O)NC(=O)[C@@H](NC(=O)[C@H](CCCCN)NC(=O)[C@H](CCCCN)NC(=O)[C@H](CC(N)=O)NC(=O)[C@@H](NC(=O)[C@H](CCC(=O)O)NC(=O)[C@H](CCC(=O)O)NC(=O)[C@@H](NC(=O)[C@H](CCCCN)NC(=O)[C@H](CCCCN)NC(=O)[C@H](CC(=O)O)NC(=O)[C@H](Cc1ccccc1)NC(=O)[C@H](CCC(=O)O)NC(=O)[C@H](CC(=O)O)NC(=O)[C@H](CO)NC(C)=O)[C@@H](C)CC)C(C)C)[C@@H](C)CC)C(=O)N[C@@H](CCC(=O)O)C(=O)N[C@@H](CCC(=O)O)C(=O)N[C@@H](CO)C(=O)N[C@@H](CC(=O)O)C(=O)N[C@@H](CCCCN)C(=O)N[C@@H](CCCCN)C(=O)N[C@@H](CC(C)C)C(=O)NCC(=O)N[C@@H](CO)C(=O)NCC(=O)N[C@@H](CO)C(=O)NCC(=O)N[C@@H](CCCCNC(=O)CCC(=O)O[C@H]1CC[C@@]2(C)C(=CC[C@H]3[C@@H]4CC[C@H]([C@H](C)CCCC(C)C)[C@@]4(C)CC[C@@H]32)C1)C(N)=O [Compound 20] (Ac-SDEFDKKIEEVNKKIEESLKKIEESDKKLGSGSGK(Succinyl(4-O-cholesteryl))-NH2) | 29 | 6.8 | 7.47 | 4.27
CC[C@H](C)[C@H](NC(=O)[C@H](CCCCN)NC(=O)[C@H](CCC(=O)O)NC(=O)[C@H](CC(C)C)NC(=O)[C@H](CO)NC(=O)[C@H](CCC(N)=O)NC(=O)[C@H](CC(N)=O)NC(=O)[C@@H](NC(=O)[C@H](CCCCN)NC(=O)[C@H](CCC(=O)O)NC(=O)[C@H](CC(N)=O)NC(=O)[C@@H](NC(=O)[C@H](CCC(N)=O)NC(=O)[C@H](CO)NC(=O)[C@H](C)NC(=O)[C@H](CC(=O)O)NC(=O)[C@H](Cc1ccccc1)NC(=O)[C@@H](NC(=O)[C@H](CC(C)C)NC(=O)[C@H](CCC(=O)O)NC(=O)[C@H](CC(=O)O)NC(=O)[C@H](Cc1ccc(O)cc1)NC(C)=O)C(C)C)C(C)C)[C@@H](C)CC)C(=O)N[C@@H](CCCNC(=N)N)C(=O)N[C@@H](CCCCN)C(=O)N[C@@H](CO)C(=O)N[C@@H](CC(=O)O)C(=O)N[C@@H](CCC(=O)O)C(=O)N[C@@H](CC(C)C)C(=O)N[C@@H](CC(C)C)C(=O)N[C@@H](Cc1c[nH]cn1)C(=O)N[C@@H](CC(N)=O)C(=O)N[C@H](C(=O)NCC(=O)N[C@@H](CO)C(=O)NCC(=O)N[C@@H](CO)C(=O)NCC(=O)N[C@@H](CCCCNC(=O)CCC(=O)O[C@H]1CC[C@@]2(C)C(=CC[C@H]3[C@@H]4CC[C@H]([C@H](C)CCCC(C)C)[C@@]4(C)CC[C@@H]32)C1)C(N)=O)C(C)C [Compound 25] (Ac-YDELVFDASQVNEKINQSLEKIRKSDELLHNVGSGSGK(Succinyl(4-O-cholesteryl))-NH2) | 7.5 | 74.6 | 86.4 | 38.1
CC[C@H](C)[C@H](NC(=O)[C@H](CO)NC(=O)[C@H](C)NC(=O)[C@H](CC(=O)O)NC(=O)[C@H](Cc1ccccc1)NC(=O)[C@H](CCC(=O)O)NC(=O)[C@H](CC(=O)O)NC(C)=O)C(=O)N[C@@H](CO)C(=O)N[C@@H](CCC(N)=O)C(=O)N[C@H](C(=O)N[C@@H](CC(N)=O)C(=O)N[C@@H](CCC(=O)O)C(=O)N[C@@H](CCCCN)C(=O)N[C@H](C(=O)N[C@@H](CC(N)=O)C(=O)N[C@@H](CCC(N)=O)C(=O)N[C@@H](CO)C(=O)N[C@@H](CC(C)C)C(=O)N[C@@H](CCC(=O)O)C(=O)N[C@@H](CCC(=O)O)C(=O)N[C@H](C(=O)N[C@@H](CCCNC(=N)N)C(=O)N[C@@H](CCCCN)C(=O)N[C@@H](CO)C(=O)N[C@@H](CC(=O)O)C(=O)N[C@@H](CCC(=O)O)C(=O)N[C@@H](CC(C)C)C(=O)N[C@@H](CC(C)C)C(=O)N[C@@H](Cc1c[nH]cn1)C(=O)N[C@@H](CC(N)=O)C(=O)N[C@@H](CCC(=O)O)C(=O)N[C@@H](C)C(=O)N[C@@H](C)C(=O)N[C@@H](C)C(=O)N[C@@H](CCCCN)C(=O)N[C@@H](CCCCNC(=O)CCC(=O)O[C@H]1CC[C@@]2(C)C(=CC[C@H]3[C@@H]4CC[C@H]([C@H](C)CCCC(C)C)[C@@]4(C)CC[C@@H]32)C1)C(N)=O)[C@@H](C)CC)[C@@H](C)CC)C(C)C [Compound 28] (Ac-DEFDASISQVNEKINQSLEEIRKSDELLHNEAAAKK(Succinyl(4-O-cholesteryl))-NH2) | 8.8 | 983 | 58.6 | 13.8
CC[C@H](C)[C@H](NC(=O)[C@H](CCCCN)NC(=O)[C@H](CCC(=O)O)NC(=O)[C@H](CC(C)C)NC(=O)[C@H](CO)NC(=O)[C@H](CCC(N)=O)NC(=O)[C@H](CC(N)=O)NC(=O)[C@@H](NC(=O)[C@H](CCCCN)NC(=O)[C@H](CCC(=O)O)NC(=O)[C@H](CC(N)=O)NC(=O)[C@@H](NC(=O)[C@H](CCC(N)=O)NC(=O)[C@H](CO)NC(=O)[C@H](C)NC(=O)[C@H](CC(=O)O)NC(=O)[C@H](Cc1ccccc1)NC(=O)[C@@H](NC(=O)[C@H](CC(C)C)NC(=O)[C@H](CCC(=O)O)NC(=O)[C@H](CC(=O)O)NC(=O)[C@H](Cc1ccc(O)cc1)NC(C)=O)C(C)C)C(C)C)[C@@H](C)CC)C(=O)N[C@@H](CCCNC(=N)N)C(=O)N[C@@H](CCCCN)C(=O)N[C@@H](CO)C(=O)N[C@@H](CC(=O)O)C(=O)N[C@@H](CCC(=O)O)C(=O)N[C@@H](CC(C)C)C(=O)N[C@@H](CC(C)C)C(=O)N[C@@H](Cc1c[nH]cn1)C(=O)N[C@@H](CC(N)=O)C(=O)N[C@H](C(=O)N[C@@H](CCC(=O)O)C(=O)N[C@@H](C)C(=O)N[C@@H](C)C(=O)N[C@@H](C)C(=O)N[C@@H](CCCCN)C(=O)N[C@@H](CCCCNC(=O)CCC(=O)O[C@H]1CC[C@@]2(C)C(=CC[C@H]3[C@@H]4CC[C@H]([C@H](C)CCCC(C)C)[C@@]4(C)CC[C@@H]32)C1)C(N)=O)C(C)C [Compound 30] (Ac-YDELVFDASQVNEKINQSLEKIRKSDELLHNVEAAAKK(Succinyl(4-O-cholesteryl))-NH2) | 6.2 | 1.02 | 94.8 | 51.3
